Laboratory results taken from patent US9872919B2, “Prodrugs for selective anticancer therapy” (THE RESEARCH FOUNDATION FOR THE STATE UNIVERSITY OF NEW YORK, priority 2012, dated 2018).
Where two headings read alike, the source gives them in different places.

Assays:
[1] = system: malignant colon cancer cells with high HDAC and CTSL activity; experiment: Cell number, trypan blue viability and PI staining, malignant colon cancer cells; type: cell-based, human; conditions: 54 μM
Description: (§1) FIG. 9. The colon cancer cell lines were grown for 5 d either with vehicle control DMSO (gray symbols) or 54 μM BKAc-Puro (red and blue symbols), and cell number was determined at the indicated time points.
FIG. 10. The cell lines were grown as in FIG. 8, cell viability was determined by trypan blue at the indicated time points, and is presented as the percentage of live cells treated with vehicle control (gray symbols) or BKAc-Puro (red and blue symbols).
FIG. 11. The cell lines were grown as in FIG. 8, and dead cells were determined after 80 h by PI signal under fluorescent microscope. BF, bright field. PI, fluorescent PI channel.
FIG. 12. Selective cytotoxicity by BKAc-Puro. The cell lines were grown and analyzed as in FIG. 10. […]
(§2) Cell number was determined by cell counting using improved Neubauer hemacytometer. Cell viability was calculated as the number of viable cells divided by the total number of cells using Trypan Blue Stain (Invitrogen) to distinguish non-viable cells. […] After additional 2-3 h incubation, the absorbance of the formazan at 490 nm was measured by the microplate reader. […] Determination of non-viable cells using PI staining was performed by adding 1 μg/ml of PI solution (Sigma) to the cell culture, prior to the examination under fluorescence microscopy (Axiovert 3, Carl Zeiss) through a×32 objective equipped with a digital imaging processor (Infinity 3, Lumenera).

[2] = system: breast cancer cells (MCF-7 and MDA-MB-231); experiment: PI staining cytotoxicity, breast cancer cells; type: cell-based, human
Description: (§3) FIG. 17. Selective cytotoxicity by BKAc-Puro on breast cancer cells. Normal mammary gland epithelial cells (Eph4) and breast cancer cells (MCF-7 and MDA-MB-231) were grown and analyzed as in FIG. 10. BF, bright field. PI, fluorescent PI channel. BKAc-Puro can selectively cause cell death in breast cancer cells (MCF-7 and MDA-MB-231) while leaving normal Eph4 cells unharmed.
as §2, with “cells. Data were obtained from duplicated samples with quadruplicate measurements. MTS based cell viability assay was performed using CellTiter 96 Aqueous Cell Proliferation Assay (Promega) according to the manufacturer's instruction.” for “cells.”

[3] = system: prostate cancer cells (PC-3, DU-145 and LNCaP); experiment: Cytotoxicity on prostate cancer cells (MTS); type: cell-based, human
Description: FIG. 19. Selective cytotoxicity by BKAc-Puro on prostate cancer cells. Prostate cancer (PC-3, DU-145, and LNCaP), colon cancer (HCT116 as a positive control sensitive to the drug), and normal colon (CCD841-CoN as a negative control) cells were grown and analyzed as in FIG. 13. BKAc-Puro can effectively cause cell death on prostate cancer cells.
as §2, with “cells. Data were obtained from duplicated samples with quadruplicate measurements. MTS based cell viability assay was performed using CellTiter 96 Aqueous Cell Proliferation Assay (Promega) according to the manufacturer's instruction.” for “cells.”

[4] = system: HCT116 xenograft tumors; type: in vivo
Description: (§4) FIG. 29. In vivo anticancer efficacy of Boc-KAc-Puro. (a) Tumor growth in HCT116 xenograft model. Animals were treated with acidified saline control or Boc-KAc-Puro (50 or 150 mg/kg). Values are mean±s.d. (n=5 mice per group). ***P<0.001 compared to the control group. P=0.000716 (50 mg/kg), P=0.000349 (150 mg/kg) at 10 d. (b) Body weight change during the treatment in a was monitored as a sign of general animal health. Values are mean±s.d. (c) Tumor growth in HT29 xenograft model. Animals were treated with acidified saline control or Boc-KAc-Puro (150 mg/kg). Values are mean±s.d. (n=5 mice per group). ***P<0.001 compared to the control group. P=0.000514 (150 mg/kg) at 10 d. (d) Body weight change during the treatment in c was monitored as a sign of general animal health. Values are mean±s.d. (e) Levels of Puro-incorporated proteins were monitored by immunoblotting. Animals bearing HT29 xenograft tumor were given daily intraperitoneal administration of the prodrug at 150 mg/kg/dose for 3 d, followed by preparation of tissue lysates. The lower panel (anti-α-Tubulin) served as a loading control.
Athymic mice (NCr, female, age 6 weeks, Taconic) were subcutaneously injected with 5×10^5 cells (HCT116 or HT29) into the lower flank, then treatment was initiated when small palpable tumors had developed (>3 mm in diameter). […] Tumor volumes and body weight were monitored daily. […] Data were expressed as mean±s.d. […]

[5] = system: normal mammary gland epithelial cells (Eph4); experiment: PI staining cytotoxicity, normal mammary gland epithelial cells; type: cell-based, mouse
Description: as §3
as §2, with “cells. Data were obtained from duplicated samples with quadruplicate measurements. MTS based cell viability assay was performed using CellTiter 96 Aqueous Cell Proliferation Assay (Promega) according to the manufacturer's instruction.” for “cells.”

[6] = system: HCT116 xenograft tumors
Description: HCT116 cells were implanted subcutaneously into female nude mice. When the developed tumors reached 200 mm^3, animals were intraperitoneally injected by the indicated dose of the compound or vehicle control (DMSO). Tumor volume was estimated by the equation vol=(a×b^2)/2, where vol, a, and b represent volume, the length of the major axis, and the length of the minor axis, respectively. […] (b) Body weight change during the treatment in a. Value is expressed in percent change compared to the day of the first treatment.
HCT116 cells were implanted subcutaneously into female nude mice. When palpable tumors reached 50-150 mm^3, animals were randomized and treated by the indicated dose of the compound or vehicle control (DMSO) via intraperitoneal injection. Tumor incidence is presented as number of mice developed tumor (volume>300 mm^3) after 2 weeks of daily treatment/number of mice treated. Tumor volume was estimated by the equation vol=(a×b^2)/2, where vol, a, and b represent volume, the length of the major axis, and the length of the minor axis, respectively.
The growth inhibitory effects of the compounds on size-matched xenografts are examined by subcutaneous implantation of HCT116 cells into nude mice. HCT116 cells are injected subcutaneously and allowed to develop palpable tumors (50-150 mm^3) before initiation of drug administration. Mice (5-10 animals per group) are treated with the vehicle (DMSO or PBS) or the prodrugs by intraperitoneal administration. […] Tumor volumes are approximated by using the equation vol=(a×b^2)/2, where vol, a, and b represent volume, the length of the major axis, and the length of the minor axis, respectively. Relative tumor volume is calculated by dividing tumor volume by that on day 0 (the day of treatment initiation). The weight of the mice is checked to monitor unfavorable effects by the compounds being tested and upon any indication of distress the mice is humanely euthanized.

[7] = system: non-malignant Caco-2 cells; experiment: Cell number determination, Caco-2; type: cell-based, human; conditions: 54 μM, 5 d
Description: as §1
Cell number was determined by cell counting using improved Neubauer hemacytometer. Cell viability was calculated as the number of viable cells divided by the total number of cells using Trypan Blue Stain (Invitrogen) to distinguish non-viable cells. Data were obtained from duplicated samples with quadruplicate measurements. MTS based cell viability assay was performed using CellTiter 96 Aqueous Cell Proliferation Assay (Promega) according to the manufacturer's instruction. Either 1 μl of DMSO alone or variable concentrations of BKAc-Puro or Puro in DMSO were added to the cell lines seeded at 5×10^4 cells per well in 96-well tissue culture plates in 100 μl of the growth medium, followed by 3-5 d incubation at 37° C. with 5% CO2 atmosphere. […] After additional 2-3 h incubation, the absorbance of the formazan at 490 nm was measured by the microplate reader. […] Determination of non-viable cells using PI staining was performed by adding 1 μg/ml of PI solution (Sigma) to the cell culture, prior to the examination under fluorescence microscopy (Axiovert 3, Carl Zeiss) through a×32 objective equipped with a digital imaging processor (Infinity 3, Lumenera).

[8] = system: HT29 xenograft tumor, muscle and kidney; experiment: Immunological detection of Puro-labeled proteins in tissues of HT29 xenograft mice; type: in vivo; conditions: 150 mg/kg/dose daily intraperitoneal for 3 d
Description: as §4, with “Animals bearing HT29 xenograft tumor were given daily intraperitoneal administration of the prodrug at 150 mg/kg/dose for 3 d, followed by preparation of tissue lysates. The lower panel (anti-α-Tubulin) served as a loading control.” left out
Cultured cells or tissue samples were sonicated in RIPA lysis buffer (1% NP-40, 0.1% SDS, 50 mM Tris-HCl pH 7.4, 150 mM NaCl, 0.5% sodium deoxycholate, 1 mM EDTA) supplemented with PMSF and protease inhibitor cocktail (Roche) on ice followed by clarification. […] Proteins of interest were detected with anti-mouse secondary antibody by chemiluminescence (ECL Kit, GE Healthcare Life Sciences). […]

COc1ccc(C[C@H](NC(=O)[C@H](CCCCNC(C)=O)NC(=O)OC(C)(C)C)C(=O)N[C@H]2[C@@H](O)[C@H](n3cnc4c(N(C)C)ncnc43)O[C@@H]2CO)cc1 [BKAc-Puro, N-[3′-(α-Amino-p-methoxyhydrocinnamamido)-3′-deoxy-N,N-dimethyldenosinyl]-N-α-(t-butoxycarbonyl)-N-ε-acetyl-L-lysineamide]
cell proliferation (cell number) ([1]; 5 d, all four malignant cells): impaired the proliferation | cell death (trypan blue exclusion, morphology, PI staining) ([1]; colon cell line panel): massive cell death wass detected only in the malignant cells | cell death [2]: selectively caused cell death | cell death [3]: effectively caused cell death | tumor growth ([4]; 50 and 150 mg/kg/dose daily intraperitoneally for 10 d): dose-dependent inhibition of tumor growth | tumor mass vs acidified saline control ([4]; P<0.001, 50 and 150 mg/kg, 10 d): significantly smaller tumor mass | cell death [5]: unharmed | tumor incidence (tumor volume above threshold after 2 weeks of daily treatment) ([6]; 200 mg/kg, intraperitoneal): no tumors greater than 300 mm^2 were observed | tumor growth ([6]; intraperitoneal, tumors 200 mm^3 at start): inhibition of tumor growth | toxicity in tumor incidence study ([6]; mouse, in vivo): no toxicity was observed | cell proliferation (cell number) [7]: allowed them to proliferate to confluency | intensity of Puro incorporation in tissues [8]: substantially greater in tumors compared with normal muscle and kidney
